{"source": "patent US6727284B2", "about": "(priority 1997, dated 2004)", "key": {"[1]": {"experiment": "Plasma DCA levels by HPLC in pediatric patients given bolus plus 24 h infusion after cardiopulmonary bypass", "type": "in vivo, human", "conditions": "bolus 100 mg/kg into proximal aorta, then infusion 12.5 mg/kg/hr for 24 hours, therapeutic range 0.2-1 mM, FIG. 1", "procedure": "This example describes the use of dichloroacetate administered in a bolus followed by infusion for 24 hrs in pediatric patients after cardiopulmonary bypass.\nDCA, in a bolus of 100 mg/kg of 10 mg/ml solution ([…] bolus) is injected into the proximal aorta immediately prior to discontinuing the aortic cross-clamp. Immediately thereafter, an infusion of DCA at 12.5 mg/kg/hr is initiated and run for 24 hours or longer. Based on the pharmacokinetics of DCA, this dosage regiment is designed to continuous maintain plasma levels of DCA in the therapeutic range of [0.2-1 mM]—in contrast to transient therapeutic levels.\nBlood samples are collected from the indwelling lines of patients in citrate-containing tubes. These samples are centrifuged to separate the plasma and frozen. The frozen samples are later analyzed for DCA concentration by using a high performance liquid chromatography technique (HPLC). See generally Thannikkuto et al., “Dichloracetate (DCA) stimulates pyruvate dehydrogenase complex (PDC) activity in hearts of patients undergoing coronary artery bypass grafting (CABG)” Can. J. Cardiol. 10(suppl. C):130C (1994). Briefly, the analysis was performed on a lonoSpher A (250×4.6 mm L X ID) column accompanied by a guard column AX. Both of the columns were purchased from Chrompack Canada. The mobile phase used was 10^−3 M pyromellitate buffer (pH 3.8-4.0) at a flow rate of […]. […]"}, "[2]": {"experiment": "Side-effects of dichloroacetate in patients", "type": "in vivo, human", "excerpt": "Higher dosages are permitted."}, "[3]": {"conditions": "cited from earlier work"}}, "note": "Entries after “also recorded” stand apart in the source; their conditions may differ."}
{"smiles": "O=C(O)C(Cl)Cl", "note": "[dichloroacetate]", "values": [{"measurement": "patient blood (plasma) levels of dichloroacetate", "setting": "[1]", "value": "continuously maintained patient blood levels of dichloroacetate in the therapeutic range"}, {"measurement": "patient blood (plasma) levels of dichloroacetate", "setting": "[1]; listed as dichloro acetate", "value": "maintained. at high (and therefore therapeutic) levels over a 24 hour period"}, {"measurement": "side-effects", "setting": "[2]", "value": "does not have significant sideeffects; also recorded: some patients experience mild drowsiness"}, {"measurement": "half-life", "setting": "[3]; in vivo", "value": "approximately 40 minutes"}, {"measurement": "time blood levels stay in the therapeutic range", "setting": "[3]; single bolus administration", "value": "less than one hour"}]}
